Test results published in ChEMBL document CHEMBL1159080, “Discovery of cyclicsulfonamide derivatives as 11 beta-hydroxysteroid dehydrogenase 1 inhibitors” (Bioorg Med Chem Lett, 2010).

Key:
[1] = target: 11-beta-hydroxysteroid dehydrogenase 1 (Homo sapiens, UniProt P28845); test: Inhibition of 11beta-HSD1 in human microsomes by HTRF cortisol assay; parameters: species or system Microsome
[2] = target: 11-beta-hydroxysteroid dehydrogenase 1 (Mus musculus, UniProt P50172); test: Inhibition of 11beta-HSD1 in mouse C2C12 cells by HTRF cortisol assay; format: cell-based
11-beta-hydroxysteroid dehydrogenase 1 (Mus musculus, UniProt P50172), sequence (P50172 whole entry): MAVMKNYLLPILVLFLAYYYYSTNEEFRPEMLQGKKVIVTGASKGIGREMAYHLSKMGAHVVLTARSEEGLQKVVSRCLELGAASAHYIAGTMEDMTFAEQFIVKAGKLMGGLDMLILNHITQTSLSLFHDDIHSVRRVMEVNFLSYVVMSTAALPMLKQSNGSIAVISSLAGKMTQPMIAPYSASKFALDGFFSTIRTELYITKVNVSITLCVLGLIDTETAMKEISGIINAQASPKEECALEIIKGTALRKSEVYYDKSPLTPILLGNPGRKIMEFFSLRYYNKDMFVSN

[3] = target: T1, 11-beta-hydroxysteroid dehydrogenase type 2 (Homo sapiens) (UniProt P80365); test: Inhibition of human 11beta-HSD2 overexpressed in HEK293 cells at 20 uM by HTRF cortisol assay; format: cell-based
T1 sequence (whole entry): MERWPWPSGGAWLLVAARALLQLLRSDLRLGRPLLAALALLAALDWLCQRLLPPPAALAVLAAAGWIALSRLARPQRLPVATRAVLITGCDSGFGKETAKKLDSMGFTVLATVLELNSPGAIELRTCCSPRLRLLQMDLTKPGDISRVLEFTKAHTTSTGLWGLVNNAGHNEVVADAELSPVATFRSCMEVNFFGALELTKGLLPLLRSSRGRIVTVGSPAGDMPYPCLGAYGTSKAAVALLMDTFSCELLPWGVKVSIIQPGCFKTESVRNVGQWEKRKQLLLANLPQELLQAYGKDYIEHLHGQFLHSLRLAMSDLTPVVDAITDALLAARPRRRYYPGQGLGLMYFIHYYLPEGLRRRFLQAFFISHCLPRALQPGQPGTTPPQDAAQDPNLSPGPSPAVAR

[4] = Half life in rat; format: ADME, organism-based; settings: in vivo
[5] = target: Voltage-gated inwardly rectifying potassium channel KCNH2 (Homo sapiens, UniProt Q12809); test: Inhibition of human ERG
Voltage-gated inwardly rectifying potassium channel KCNH2, sequence (Q12809 whole entry): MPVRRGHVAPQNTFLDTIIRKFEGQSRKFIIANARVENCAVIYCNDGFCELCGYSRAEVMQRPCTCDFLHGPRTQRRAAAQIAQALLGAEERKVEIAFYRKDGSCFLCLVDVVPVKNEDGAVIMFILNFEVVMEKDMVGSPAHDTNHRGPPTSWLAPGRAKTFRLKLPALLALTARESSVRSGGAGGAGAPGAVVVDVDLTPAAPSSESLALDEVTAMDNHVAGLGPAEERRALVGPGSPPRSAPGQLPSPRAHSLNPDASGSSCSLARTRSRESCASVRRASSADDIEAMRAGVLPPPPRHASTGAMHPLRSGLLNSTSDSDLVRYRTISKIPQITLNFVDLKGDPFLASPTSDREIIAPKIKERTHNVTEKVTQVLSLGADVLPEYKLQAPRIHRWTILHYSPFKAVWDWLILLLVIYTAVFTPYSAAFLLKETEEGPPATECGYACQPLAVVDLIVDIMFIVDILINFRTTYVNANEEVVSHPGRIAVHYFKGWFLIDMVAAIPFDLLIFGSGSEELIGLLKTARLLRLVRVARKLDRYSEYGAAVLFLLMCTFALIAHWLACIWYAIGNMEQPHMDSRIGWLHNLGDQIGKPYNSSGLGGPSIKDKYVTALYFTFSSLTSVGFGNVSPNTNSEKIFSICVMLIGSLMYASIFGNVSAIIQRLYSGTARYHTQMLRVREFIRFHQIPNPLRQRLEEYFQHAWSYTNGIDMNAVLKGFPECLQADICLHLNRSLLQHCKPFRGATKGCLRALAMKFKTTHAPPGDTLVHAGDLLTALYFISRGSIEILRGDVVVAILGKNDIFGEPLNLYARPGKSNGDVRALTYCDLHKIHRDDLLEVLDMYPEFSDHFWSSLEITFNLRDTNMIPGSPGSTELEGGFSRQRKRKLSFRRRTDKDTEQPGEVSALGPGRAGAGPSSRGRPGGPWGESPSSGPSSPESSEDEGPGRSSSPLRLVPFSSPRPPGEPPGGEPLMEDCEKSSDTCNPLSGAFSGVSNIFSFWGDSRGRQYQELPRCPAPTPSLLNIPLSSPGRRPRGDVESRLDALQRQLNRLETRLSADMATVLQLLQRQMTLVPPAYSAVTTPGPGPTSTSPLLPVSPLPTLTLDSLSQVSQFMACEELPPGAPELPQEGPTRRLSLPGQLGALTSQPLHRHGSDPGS

Rattus norvegicus = species: Rattus norvegicus; test: Clearance in rat; format: ADME, organism-based; settings: in vivo
[6] = Cmax in rat; format: ADME, organism-based; settings: in vivo
[7] = Half life in human liver microsomes; format: ADME, Microsome
[8] = Oral bioavailability in rat; format: ADME, organism-based; settings: in vivo

11-beta-hydroxysteroid dehydrogenase 1 (Homo sapiens, UniProt P28845), sequence (P28845 whole entry): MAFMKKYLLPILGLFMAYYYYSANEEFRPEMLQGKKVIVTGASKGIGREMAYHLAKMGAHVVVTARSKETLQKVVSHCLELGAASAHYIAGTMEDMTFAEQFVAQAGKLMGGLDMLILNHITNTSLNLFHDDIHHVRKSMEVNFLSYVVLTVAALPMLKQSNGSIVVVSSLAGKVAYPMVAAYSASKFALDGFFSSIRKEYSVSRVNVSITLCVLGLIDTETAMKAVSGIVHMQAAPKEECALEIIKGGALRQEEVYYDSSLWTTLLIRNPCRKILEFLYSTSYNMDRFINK

Structure (SMILES) | IC50 [1] [µM] | IC50 [2] [µM] | other results
O=C(O)c1ccc(C(=O)CN2C(C(=O)c3ccccc3)=C(O)c3ccccc3S2(=O)=O)cc1 | 0.72 |  | 
COC(=O)c1ccc(C(=O)CN2C(C(=O)c3ccccc3)=C(O)c3ccccc3S2(=O)=O)cc1 | 0.031 |  | 
N#Cc1ccc(C(=O)CN2C(C(=O)c3ccccc3)=C(O)c3ccccc3S2(=O)=O)cc1 | 0.04 | 9 | 
O=C(CN1C(C(=O)c2ccccc2)=C(O)c2ccccc2S1(=O)=O)c1ccccc1 |  | 7.8 | inhibition [3]: 6%; half-life [4]: 5.5 h; IC50 [5]: > 100 µM; CL (Rattus norvegicus): 6.7 mL/min/kg; Cmax [6]: 1100 ng/mL; half-life [7]: 1.25 h; bioavailability [8]: 48.7%

Further lines, with some results ahead:

IC50 [1] [µM] | IC50 [2] [µM] | Structure (SMILES) | other results
0.03 |  | O=C(CN1C(C(=O)c2ccccc2)=C(O)c2ccccc2S1(=O)=O)c1ccc([N+](=O)[O-])cc1 | 
0.028 |  | O=C(CN1C(C(=O)c2ccccc2)=C(O)c2ccccc2S1(=O)=O)c1ccc(-c2ccccc2)cc1 | 
